Structures are written as SMILES.

The values below come from US20120270819A1, “USE OF COMPOUNDS WITH SGLT-1/SGLT-2 INHIBITOR ACTIVITY FOR PRODUCING MEDICAMENTS FOR TREATMENT OF BONE DISEASE” (SANOFI, priority 2009, published 2012).

For the experiment, the target named is T1, human sodium-dependent glucose transporter 2 (SGLT2, SLC5A2) (Homo sapiens, UniProt P31639).
T1 construct: Bases 21 to 2039 correspond to the complete coding region of human SGLT2; expressed in transfected cells; host or cells: CHO-TREx cells (Invitrogen), pcDNA4/TO vector, tetracycline-induced
T1 sequence (P31639 1-672): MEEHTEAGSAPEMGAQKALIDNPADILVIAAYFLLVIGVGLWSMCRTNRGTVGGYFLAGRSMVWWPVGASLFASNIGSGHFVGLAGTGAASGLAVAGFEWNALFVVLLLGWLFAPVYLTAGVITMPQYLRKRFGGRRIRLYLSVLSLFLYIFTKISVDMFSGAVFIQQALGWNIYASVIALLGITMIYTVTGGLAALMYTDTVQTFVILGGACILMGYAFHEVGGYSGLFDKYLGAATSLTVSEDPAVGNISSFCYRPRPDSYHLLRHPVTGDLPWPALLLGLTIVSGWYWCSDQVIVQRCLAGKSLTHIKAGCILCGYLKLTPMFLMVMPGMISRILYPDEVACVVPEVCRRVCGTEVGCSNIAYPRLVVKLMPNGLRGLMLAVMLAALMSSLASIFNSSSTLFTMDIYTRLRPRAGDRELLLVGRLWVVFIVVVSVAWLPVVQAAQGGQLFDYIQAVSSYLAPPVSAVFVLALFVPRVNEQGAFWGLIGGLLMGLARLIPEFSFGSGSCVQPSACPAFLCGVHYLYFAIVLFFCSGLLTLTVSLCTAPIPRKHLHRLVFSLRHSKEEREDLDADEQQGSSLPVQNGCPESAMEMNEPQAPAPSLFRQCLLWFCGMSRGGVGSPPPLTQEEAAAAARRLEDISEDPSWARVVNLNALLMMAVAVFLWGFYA
The experiment in a line: Inhibition of methyl-D-glucopyranoside uptake in CHO-TRex-hSGLT2 cells. Format: cell-based. Particulars: recombinant SGLT2; read-out: IC50 SGLT 2. An excerpt:
Inhibition of the Transport Activity of the Human Sodium-Dependent Glucose Transporter 2 (SGLT2, SLC5A2) In Vitro
1. Cloning of an Expression Vector for Human SGLT2
The cDNA for human SGLT2 was introduced into the pcDNA4/TO vector (Invitrogen) by means of standard methods of molecular biology as described in Sambrook et al. (Molecular Cloning, A Laboratory Manual, Second Edition). […] Bases 21 to 2039 correspond to the complete coding region of human SGLT2.
2. Production of a Recombinant Cell Line with Inducible Expression of Human SGLT2
The expression vector for human SGLT2 was introduced into CHO-TREx cells (Invitrogen) by means of FuGene6 lipofection (Roche). To select single cell clones, 600 μg/ml of Zeocin (Invitrogen) was added to the cell culture medium (nutrient mixture F-12 (Ham), (Invitrogen) supplemented with 10% fetal calf serum (FBS Gold, PAA), 10 μg/ml Blasticidin S(CN Biosciences), 100 units/ml penicillin, 100 units/ml streptomycin). The functionality of the single cell clones resulting from the selection was tested via their uptake activity for radiolabeled methyl- -D-glucopyranoside. That cell clone with the highest uptake activity for methyl- -D-glucopyranoside, referred to hereinafter as CHO-TRex-hSGLT2, was selected for the further experiments and cultured further in the presence of 600 μg/ml Zeocin.
3. Measurement of the Inhibiting Action of Test Substances on the Uptake of Methyl- -D-glucopyranoside (-MDG)
CHO-TRex-hSGLT2 cells were seeded in cell culture medium in a concentration of 50 000 cells per well in Cytostar-T scintillating 96-well plates (Amersham Biosciences) and cultivated for 24 h. The expression of the recombinant human SGLT2 was induced by adding 1 μg/ml tetrazykline for a further 24 h. For -MDG uptake experiments, the cells were washed with PBS and then starved at 37° C. in starvation medium (PBS supplemented with 10% fetal calf serum) for 1 hour. […] After an incubation time of 120 min at 37° C., the reaction was stopped by adding 50 μl/well of 10 mM methyl- -D-glucopyranoside in transport assay buffer (4° C.), and the radioactivity taken up into the cells was determined in a MicroBeta Scintillation Microplate Reader (Wallac). The half-maximum inhibiting action of the test substances (IC50 value) was determined as follows:
4. […] This is the measurement in the absence of substance, measured in sodium-containing transport assay buffer.
5. […] This is the measurement in the absence of substance, measured in sodium-free transport assay buffer (140 mM choline chloride, 2 mM potassium chloride, 1 mM magnesium chloride, 1 mM calcium chloride, 10 mM HEPES/Tris, pH7.5). […]
With `COc1ccc(Cc2ccccc2OC2OC(CO)C(F)C(O)C2O)cc1` (stereo not shown) [Example 1 of formula III], the IC50 is 34 nM.
With `COc1ccc(Cc2c(OC3OC(CO)C(F)C(O)C3O)n[nH]c2C(F)(F)F)cc1` (stereo not shown) [Example 5 of formula II] the figure was 88 nM.
With `CCc1ccc(Cc2ccccc2OC2OC(CO)C(F)C(O)C2O)cc1` (stereo not shown) [Example 20 of formula III] the figure was 29 nM; with `CC(C)c1[nH]nc(OC2OC(CO)C(F)C(O)C2O)c1Cc1ccc(CCCC(=O)NC(CO)(CO)CO)cc1` (stereo not shown) [Example 21 of formula I], 318 nM.

For orientation: IC50 means the concentration that gives 50% inhibition.
